# Measured values as given in patent EP4483954A1 (Masarykova Univerzita, priority 2023, dated 2025).
# Key:
# Format in all cases: biochemical
# [1] = molecular target: T1, CDKL4(h) (Homo sapiens, UniProt Q5MAI5); experiment: radiometric kinase assay (KinaseProfiler, Eurofins), CDKL4; settings: in vitro radiometric kinase assay, tested at 1 nM to 10 000 nM, no pre-incubation; read-out: inhibitory activities (IC50 values) CDKL4
# T1 construct: purchased Eurofins (KinaseProfiler)
# Experimental: (§1) The compounds were profiled in the radiometric assays (KinaseProfiler, Eurofins).
# (§2) Briefly, kinases were diluted in the buffer shown below prior to addition to the reaction mix: • CDKL3, TAF1L: 20 mM Tris/HCl pH 8.5, 0.2 mM EDTA, 0.1% β-mercaptoethanol, 0.01% Brij-35, 5% glycerol, 1 mg/ml BSA; • Haspin: 15 mM MOPS, 0.75 mM EDTA, 0.0075% Brij-35, 3.75% Glycerol, 150 mM NaCl, 0.1% β-mercaptoethanol, 1 mg/mLBSA; • CDKL4, CLK2, PIM1, TRB2: […], 1 mM EDTA, 0.01% Brij-35, 5% Glycerol, 0.1% β-mercaptoethanol, 1 mg/mL BSA.
# (§3) All compounds were prepared to 50x final assay concentration in 100% DMSO. This working stock of the compound was added to the assay well as the first component in the reaction, followed by the remaining components as detailed in the general assay protocols below. There was no pre-incubation step between the compound and the kinase prior to initiation of the reaction.
# (§4) CDKL4(h) was incubated with 8 mM MOPS pH 7.0, 0.2 mM EDTA, 250 µM RRRFRPASPLRGPPK (SEQ ID NO. 1), 10 mM magnesium acetate and γ-^33P-ATP (specific activity and concentration as required). The reaction was initiated by the addition of the Mg/ATP mix. After incubation for 120 minutes at room temperature, the reaction was stopped by the addition of phosphoric acid to a concentration of 0.5%. An aliquot of the stopped reaction was spotted onto a filter and washed four times for 4 minutes in 0.425% phosphoric acid and once in methanol prior to drying and scintillation counting.
# (§5) Kinase activity data were expressed as the percent remaining kinase activity in tested samples compared to the vehicle (DMSO) reactions. The compounds were tested at the following concentrations: 1 nM, 3 nM, 10 nM, 30 nM, 100 nM, 300 nM, 1000 nM, 3000 nM, and 10 000 nM; IC50 values and curve fits were then obtained.
# [2] = molecular target: T2, PIM1 (h) (Homo sapiens, UniProt P11309); experiment: radiometric kinase assay (KinaseProfiler, Eurofins), PIM1; settings: in vitro radiometric kinase assay, tested at 1 nM to 10 000 nM, no pre-incubation; read-out: inhibitory activities (IC50 values) PIM1
# T2 construct: purchased Eurofins (KinaseProfiler)
# T2 sequence (P11309 whole entry): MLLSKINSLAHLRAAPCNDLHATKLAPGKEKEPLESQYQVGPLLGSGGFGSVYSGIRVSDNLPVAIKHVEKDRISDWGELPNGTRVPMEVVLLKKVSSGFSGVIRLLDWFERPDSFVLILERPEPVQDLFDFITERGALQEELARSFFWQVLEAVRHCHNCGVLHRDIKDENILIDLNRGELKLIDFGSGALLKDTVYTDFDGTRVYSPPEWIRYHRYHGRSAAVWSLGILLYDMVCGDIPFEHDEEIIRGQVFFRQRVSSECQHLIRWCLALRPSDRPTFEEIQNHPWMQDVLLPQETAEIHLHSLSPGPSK
# Experimental: as §1, §2, §3
# (§6) PIM1 (h) was incubated with 8 mM MOPS pH 7.0, 0.2 mM EDTA, 100 µM KKRNRTLTV (SEQ ID NO. 4), 10 mM magnesium acetate and γ-^33P-ATP (specific activity and concentration as required). The reaction was initiated by the addition of the Mg/ATP mix. After incubation for 40 minutes at room temperature, the reaction was stopped by the addition of phosphoric acid to a concentration of 0.5%. An aliquot of the reaction was then spotted onto a filter and washed four times for 4 minutes in 0.425% phosphoric acid and once in methanol prior to drying and scintillation counting.
# as §5
# [3] = molecular target: T3, TAF1L(h) (Homo sapiens, UniProt Q8IZX4); experiment: radiometric kinase assay (KinaseProfiler, Eurofins), TAF1L; settings: in vitro radiometric kinase assay, tested at 1 nM to 10 000 nM, no pre-incubation; read-out: inhibitory activities (IC50 values) TAF1L
# T3 construct: purchased Eurofins (KinaseProfiler)
# T3 sequence (Q8IZX4 whole entry): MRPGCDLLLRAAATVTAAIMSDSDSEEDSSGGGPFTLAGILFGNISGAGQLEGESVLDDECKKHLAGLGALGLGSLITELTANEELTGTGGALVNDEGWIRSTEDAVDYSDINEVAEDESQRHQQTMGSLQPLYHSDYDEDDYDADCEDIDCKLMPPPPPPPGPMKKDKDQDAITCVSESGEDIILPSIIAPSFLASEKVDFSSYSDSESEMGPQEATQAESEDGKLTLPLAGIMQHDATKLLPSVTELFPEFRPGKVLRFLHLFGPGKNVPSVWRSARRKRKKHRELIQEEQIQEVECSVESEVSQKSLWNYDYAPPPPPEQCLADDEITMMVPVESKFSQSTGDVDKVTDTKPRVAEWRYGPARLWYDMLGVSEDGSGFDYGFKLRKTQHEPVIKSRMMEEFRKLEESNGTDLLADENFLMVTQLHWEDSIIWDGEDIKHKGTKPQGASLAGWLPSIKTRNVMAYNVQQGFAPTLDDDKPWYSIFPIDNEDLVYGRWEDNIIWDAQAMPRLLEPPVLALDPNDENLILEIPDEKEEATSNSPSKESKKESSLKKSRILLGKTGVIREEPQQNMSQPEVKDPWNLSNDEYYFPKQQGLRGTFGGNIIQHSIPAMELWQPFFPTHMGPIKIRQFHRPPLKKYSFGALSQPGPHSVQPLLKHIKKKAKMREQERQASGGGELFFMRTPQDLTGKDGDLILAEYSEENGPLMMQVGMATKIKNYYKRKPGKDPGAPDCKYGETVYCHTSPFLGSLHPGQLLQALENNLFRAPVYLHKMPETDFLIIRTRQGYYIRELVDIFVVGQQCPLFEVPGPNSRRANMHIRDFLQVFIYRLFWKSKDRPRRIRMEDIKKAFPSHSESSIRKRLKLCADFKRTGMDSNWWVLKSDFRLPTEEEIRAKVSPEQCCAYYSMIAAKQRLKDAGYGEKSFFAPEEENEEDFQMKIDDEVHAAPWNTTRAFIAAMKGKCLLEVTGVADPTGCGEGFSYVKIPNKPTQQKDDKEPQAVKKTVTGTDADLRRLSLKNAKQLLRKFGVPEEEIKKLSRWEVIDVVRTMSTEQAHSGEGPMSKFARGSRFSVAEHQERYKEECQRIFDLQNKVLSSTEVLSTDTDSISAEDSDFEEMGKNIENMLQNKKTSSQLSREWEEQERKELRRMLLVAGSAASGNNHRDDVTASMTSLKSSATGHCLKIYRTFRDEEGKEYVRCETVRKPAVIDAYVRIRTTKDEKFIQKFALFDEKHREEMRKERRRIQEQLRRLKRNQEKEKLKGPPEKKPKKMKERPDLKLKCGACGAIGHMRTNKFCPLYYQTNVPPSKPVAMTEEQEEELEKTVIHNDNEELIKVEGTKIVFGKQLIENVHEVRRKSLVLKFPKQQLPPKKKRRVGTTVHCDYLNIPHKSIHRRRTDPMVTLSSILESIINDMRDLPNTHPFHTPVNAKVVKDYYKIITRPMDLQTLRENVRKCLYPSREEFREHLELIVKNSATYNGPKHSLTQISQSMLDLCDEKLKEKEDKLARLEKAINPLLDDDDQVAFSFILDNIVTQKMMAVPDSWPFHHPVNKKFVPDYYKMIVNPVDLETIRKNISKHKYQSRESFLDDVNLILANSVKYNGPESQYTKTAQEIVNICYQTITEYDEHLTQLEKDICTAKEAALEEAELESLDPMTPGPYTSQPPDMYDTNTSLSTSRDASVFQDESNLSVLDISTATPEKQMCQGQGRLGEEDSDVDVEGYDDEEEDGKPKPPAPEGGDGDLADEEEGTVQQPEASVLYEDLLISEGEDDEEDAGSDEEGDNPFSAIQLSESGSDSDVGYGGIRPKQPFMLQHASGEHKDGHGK
# Experimental: as §1, §2, §3
# as §4, with “TAF1L(h)” for “CDKL4(h)”, “20” for “8”, “Tris/HCl” for “MOPS”, “8.5,” for “7.0,”
# as §5
# [4] = molecular target: T4, CLK2 (h) (Homo sapiens, UniProt P49760); experiment: radiometric kinase assay (KinaseProfiler, Eurofins), CLK2; settings: in vitro radiometric kinase assay, tested at 1 nM to 10 000 nM, no pre-incubation; read-out: inhibitory activities (IC50 values) CLK2
# T4 construct: purchased Eurofins (KinaseProfiler)
# T4 sequence (P49760 whole entry): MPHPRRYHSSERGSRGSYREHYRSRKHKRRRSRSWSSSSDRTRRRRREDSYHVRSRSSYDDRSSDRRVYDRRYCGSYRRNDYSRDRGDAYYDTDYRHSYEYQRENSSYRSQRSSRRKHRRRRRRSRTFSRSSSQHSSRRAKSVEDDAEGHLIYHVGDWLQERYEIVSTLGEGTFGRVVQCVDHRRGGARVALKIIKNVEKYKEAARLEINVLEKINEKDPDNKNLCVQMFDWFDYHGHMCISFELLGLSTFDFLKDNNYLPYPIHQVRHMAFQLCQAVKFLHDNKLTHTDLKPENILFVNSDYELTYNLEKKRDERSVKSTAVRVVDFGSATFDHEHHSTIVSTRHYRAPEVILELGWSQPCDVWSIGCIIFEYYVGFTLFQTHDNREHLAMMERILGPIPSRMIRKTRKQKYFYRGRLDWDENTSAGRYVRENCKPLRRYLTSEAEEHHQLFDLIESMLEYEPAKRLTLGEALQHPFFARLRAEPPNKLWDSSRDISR
# Experimental: as §1, §2, §3
# as §6, with “CLK2” for “PIM1”, “20” for “100”, “[…](p)EDEEE” for “KKRNRTLTV”, “2),” for “4),”
# as §5
# [5] = molecular target: T5, TRB2(h) (Homo sapiens, UniProt Q92519); experiment: radiometric kinase assay (KinaseProfiler, Eurofins), TRB2; settings: in vitro radiometric kinase assay, tested at 1 nM to 10 000 nM, no pre-incubation; read-out: inhibitory activities (IC50 values) TRB2
# T5 construct: purchased Eurofins (KinaseProfiler)
# T5 sequence (Q92519 1-343): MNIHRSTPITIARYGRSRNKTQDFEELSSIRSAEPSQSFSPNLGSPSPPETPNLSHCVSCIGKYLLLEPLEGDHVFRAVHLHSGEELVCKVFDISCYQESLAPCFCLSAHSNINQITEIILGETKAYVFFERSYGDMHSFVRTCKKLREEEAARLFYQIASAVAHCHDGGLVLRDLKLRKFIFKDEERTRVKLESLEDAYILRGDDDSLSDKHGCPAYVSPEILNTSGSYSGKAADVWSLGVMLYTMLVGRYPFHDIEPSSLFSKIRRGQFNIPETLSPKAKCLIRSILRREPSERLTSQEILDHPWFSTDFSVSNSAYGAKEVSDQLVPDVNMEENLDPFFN
# Experimental: as §1, §2, §3
# as §4, with “TRB2(h)” for “CDKL4(h)”
# as §5
# T1 sequence (Q5MAI5 whole entry): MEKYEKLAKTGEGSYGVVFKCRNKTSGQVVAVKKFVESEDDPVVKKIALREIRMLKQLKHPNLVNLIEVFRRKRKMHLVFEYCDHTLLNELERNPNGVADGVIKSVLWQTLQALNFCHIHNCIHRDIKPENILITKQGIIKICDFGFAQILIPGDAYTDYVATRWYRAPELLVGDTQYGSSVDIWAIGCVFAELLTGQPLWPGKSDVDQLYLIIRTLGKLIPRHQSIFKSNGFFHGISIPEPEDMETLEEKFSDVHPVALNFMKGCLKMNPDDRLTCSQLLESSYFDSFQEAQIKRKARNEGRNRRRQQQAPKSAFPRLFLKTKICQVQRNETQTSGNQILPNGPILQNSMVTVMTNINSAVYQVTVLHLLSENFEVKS
SMILES,IC50 [1] [nM],IC50 [2] [nM],IC50 [3] [nM],IC50 [4] [nM],IC50 [5] [nM]
"Cn1cc(-c2csc3ccc(Oc4ccccc4)nc23)cn1 [Preparative Example 139, 3-(1-methyl-1H-pyrazol-4-yl)-5-phenoxythieno[3,2-b]pyridine]",500 to 3000,500 to 3000,500 to 3000,500 to 3000,500 to 3000
"c1ccc(Cn2cc(-c3ccc4scc(-c5ccncc5)c4n3)cn2)cc1 [Preparative Example 81, 5-(1-benzyl-1H-pyrazol-4-yl)-3-(pyridin-4-yl)thieno[3,2-b]pyridine]",500 to 3000,100 to 499,500 to 3000,3000 to 10000,3000 to 10000
"Cc1cnccc1-c1csc2ccc(-c3cnn(C)c3)nc12 [Preparative Example 32, 5-(1-methyl-1H-pyrazol-4-yl)-3-(3-methylpyridin-4-yl)thieno[3,2-b]pyridine]",500 to 3000,500 to 3000,500 to 3000,3000 to 10000,3000 to 10000
"Cc1cc2scc(-c3ccncc3)c2nc1-c1ccn(C)n1 [Preparative Example 151, 6-methyl-5-(1-methyl-1H-pyrazol-3-yl)-3-(pyridin-4-yl)thieno[3,2-b]pyridine]",3000 to 10000,3000 to 10000,3000 to 10000,3000 to 10000,3000 to 10000
"Cc1cc2scc(-c3ccncc3)c2nc1-c1cnn(C)c1 [Preparative Example 150, 6-methyl-5-(1-methyl-1H-pyrazol-4-yl)-3-(pyridin-4-yl)thieno[3,2-b]pyridine]",500 to 3000,500 to 3000,500 to 3000,3000 to 10000,500 to 3000
"CCn1cc(-c2ccc3scc(-c4ccncc4)c3n2)cn1 [Preparative Example 77, 5-(1-ethyl-1H-pyrazol-4-yl)-3-(pyridin-4-yl)thieno[3,2-b]pyridine]",500 to 3000,500 to 3000,500 to 3000,3000 to 10000,500 to 3000
"FC(F)(F)n1cc(-c2ccc3scc(-c4ccncc4)c3n2)cn1 [Preparative Example 78, 3-(pyridin-4-yl)-5-(1-(trifluoromethyl)-1H-pyrazol-4-yl)thieno[3,2-b]pyridine]",500 to 3000,3000 to 10000,3000 to 10000,3000 to 10000,3000 to 10000
"Cc1nsc(-c2csc3ccc(-c4cnn(C)c4)nc23)n1 [Preparative Example 71, 3-(3-methyl-1,2,4-thiadiazol-5-yl)-5-(1-methyl-1H-pyrazol-4-yl)thieno[3,2-b]pyridine]",100 to 499,100 to 499,100 to 499,500 to 3000,100 to 499
"Cn1cc(-c2ccc3scc(-c4ccns4)c3n2)cn1 [Preparative Example 67, 3-(isothiazol-5-yl)-5-(1-methyl-1H-pyrazol-4-yl)thieno[3,2-b]pyridine]",20 to 99,100 to 499,20 to 99,500 to 3000,20 to 99
"Cn1cc(-c2ccc3scc(C4=CCNCC4)c3n2)cn1 [Preparative Example 9, 5-(1-methyl-1H-pyrazol-4-yl)-3-(1,2,3,6-tetrahydropyridin-4-yl)-thieno[3.2-b]pyridine]",500 to 3000,500 to 3000,500 to 3000,3000 to 10000,3000 to 10000
"c1cc(-c2csc3ccc(Nc4cc[nH]n4)nc23)ccn1 [Preparative Example 101, N-(1H-pyrazol-3-yl)-3-(pyridin-4-yl)thieno[3,2-b]pyridin-5-amine]",100 to 499,500 to 3000,20 to 99,100 to 499,20 to 99
Cn1cc(-c2ccc3scc(C(O)c4ccccc4)c3n2)cn1 (stereo not drawn) [Preparative Example 74],100 to 499,500 to 3000,100 to 499,500 to 3000,500 to 3000
"Cn1ccc(-c2cc(Cl)c3scc(-c4ccncc4)c3n2)n1 [Preparative Example 163, 7-chloro-5-(1-methyl-1H-pyrazol-3-yl)-3-(pyridin-4-yl)thieno[3,2-b]pyridine]",500 to 3000,3000 to 10000,500 to 3000,3000 to 10000,500 to 3000
Cn1cc(-c2ccc3scc(-c4ccnc(C#N)c4)c3n2)cn1,100 to 499,500 to 3000,100 to 499,3000 to 10000,100 to 499
"COc1cc(-c2csc3ccc(-c4cnn(C)c4)nc23)ccn1 [Preparative Example 17, 3-(2-methoxypyridin-4-yl)-5-(1-methyl-1H-pyrazol-4-yl)thieno[3.2-b]pyridine]",100 to 499,100 to 499,100 to 499,500 to 3000,500 to 3000
"Cn1cc(-c2ccc3scc(-c4ccncc4)c3n2)c(N)n1 [Preparative Example 84, 1-methyl-4-(3-(pyridin-4-yl)thieno[3,2-b]pyridin-5-yl)-1H-pyrazol-3-amine]",500 to 3000,3000 to 10000,500 to 3000,3000 to 10000,500 to 3000
"Cn1cc(-c2ccc3scc(-c4ccncc4F)c3n2)cn1 [Preparative Example 36, 3-(3-fluoropyridin-4-yl)-5-(1-methyl-1H-pyrazol-4-yl)thieno[3,2-b]pyridine]",100 to 499,100 to 499,100 to 499,500 to 3000,100 to 499
"Cn1cc(-c2cc(Cl)c3scc(-c4ccncc4)c3n2)cn1 [Preparative Example 162, 7-chloro-5-(1-methyl-1H-pyrazol-4-yl)-3-(pyridin-4-yl)thieno[3,2-b]pyridine]",100 to 499,500 to 3000,100 to 499,500 to 3000,100 to 499
